According to ChEMBL document CHEMBL5543097, “Synthesis and structure-activity relationships of novel 14-membered 2-fluoro ketolides with structural modification at the C11 position” (Eur J Med Chem, 2024):
Converted amounts (≈) assume the structure as drawn. The source made the active and inactive calls. The calls are words filed in the database; no cut-off is given here.

Legend:
[1] = tested on: Staphylococcus epidermidis; test: Antibacterial activity against erythromycin-resistant Staphylococcus epidermidis 19-5 assessed as inhibition of visible bacterial growth incubated for 18 hrs by broth microdilution method; type: functional
Haemophilus influenzae [2] = test: Antibacterial activity against Haemophilus influenzae HIN 19-15 assessed as inhibition of bacterial growth incubated for 20 to 24 hrs by CLSI based broth microdilution method; type: functional; conditions: time 20-24 hrs
Haemophilus influenzae [3] = test: Antibacterial activity against Haemophilus influenzae HIN 20-18 assessed as inhibition of bacterial growth incubated for 20 to 24 hrs by CLSI based broth microdilution method; type: functional; conditions: time 20-24 hrs
Streptococcus pneumoniae [4] = test: Potency index, ratio of telithromycin MIC to test compound MIC for antibacterial activity against Streptococcus pneumoniae SPN19-13 assessed as inhibition of visible bacterial growth incubated for 18 hrs by broth microdilution method; type: functional
[5] = tested on: Staphylococcus epidermidis; test: Potency index, ratio of telithromycin MIC to test compound MIC for antibacterial activity against erythromycin-resistant Staphylococcus epidermidis 19-11 assessed as inhibition of visible bacterial growth incubated for 18 hrs by broth microdilution method; type: functional
Streptococcus pneumoniae [6] = test: Antibacterial activity against erythromycin-resistant Streptococcus pneumoniae SPN19-8 assessed as inhibition of visible bacterial growth incubated for 18 hrs by broth microdilution method; type: functional
[7] = tested on: Staphylococcus epidermidis; test: Antibacterial activity against erythromycin-resistant Staphylococcus epidermidis 19-9 assessed as inhibition of visible bacterial growth incubated for 18 hrs by broth microdilution method; type: functional
Haemophilus influenzae [8] = test: Antibacterial activity against Haemophilus influenzae HIN 19-18 assessed as inhibition of bacterial growth incubated for 20 to 24 hrs by CLSI based broth microdilution method; type: functional; conditions: HIN 19-18, time 20-24 hrs
[9] = Metabolic stability in human liver microsome assessed as parent compound remaining in presence of NADPH measured at 60 mins by LC-MS/MS analysis; type: ADME; conditions: liver microsomes, read-out: Stability
[10] = tested on: Staphylococcus epidermidis; test: Potency index, ratio of telithromycin MIC to test compound MIC for antibacterial activity against erythromycin-resistant Staphylococcus epidermidis 19-5 assessed as inhibition of visible bacterial growth incubated for 18 hrs by broth microdilution method; type: functional
Moraxella catarrhalis [11] = test: Antibacterial activity against Moraxella catarrhalis BCA 19-31 assessed as inhibition of bacterial growth incubated for 24 hrs by CLSI based broth microdilution method; type: functional; conditions: BCA 19-31, 24 h
Streptococcus pneumoniae [12] = test: Antibacterial activity against erythromycin-resistant Streptococcus pneumoniae SPN19-14 assessed as inhibition of visible bacterial growth incubated for 18 hrs by broth microdilution method; type: functional
Streptococcus pneumoniae [13] = test: Antibacterial activity against erythromycin-resistant Streptococcus pneumoniae SPN19-13 assessed as inhibition of visible bacterial growth incubated for 18 hrs by broth microdilution method; type: functional
Moraxella catarrhalis [14] = test: Antibacterial activity against Moraxella catarrhalis BCA 19-5 assessed as inhibition of bacterial growth incubated for 24 hrs by CLSI based broth microdilution method; type: functional; conditions: Moraxella catarrhalis, BCA 19-5, 24 h, read-out: MIC
[15] = Metabolic stability in human liver microsome assessed as parent compound remaining in absence of NADPH measured at 60 mins by LC-MS/MS analysis; type: ADME; conditions: liver microsomes, read-out: Stability
Streptococcus pneumoniae [16] = test: Potency index, ratio of telithromycin MIC to test compound MIC for antibacterial activity against Streptococcus pneumoniae SPN19-8 assessed as inhibition of visible bacterial growth incubated for 18 hrs by broth microdilution method; type: functional
[17] = tested on: Staphylococcus epidermidis; test: Antibacterial activity against erythromycin-resistant Staphylococcus epidermidis 19-6 assessed as inhibition of visible bacterial growth incubated for 18 hrs by broth microdilution method; type: functional
[18] = tested on: Staphylococcus epidermidis; test: Potency index, ratio of telithromycin MIC to test compound MIC for antibacterial activity against erythromycin-resistant Staphylococcus epidermidis 19-4 assessed as inhibition of visible bacterial growth incubated for 18 hrs by broth microdilution method; type: functional
[19] = Metabolic stability in human liver microsome assessed as intrinsic clearance measured at 60 mins by LC-MS/MS analysis; type: ADME; conditions: liver microsomes, read-out: CLH
[20] = tested on: Staphylococcus epidermidis; test: Potency index, ratio of telithromycin MIC to test compound MIC for antibacterial activity against erythromycin-resistant Staphylococcus epidermidis 19-6 assessed as inhibition of visible bacterial growth incubated for 18 hrs by broth microdilution method; type: functional
[21] = tested on: Staphylococcus epidermidis; test: Potency index, ratio of telithromycin MIC to test compound MIC for antibacterial activity against erythromycin-resistant Staphylococcus epidermidis 19-9 assessed as inhibition of visible bacterial growth incubated for 18 hrs by broth microdilution method; type: functional
Moraxella catarrhalis [22] = test: Antibacterial activity against Moraxella catarrhalis BCA 19-6 assessed as inhibition of bacterial growth incubated for 24 hrs by CLSI based broth microdilution method; type: functional; conditions: Moraxella catarrhalis, BCA 19-6, 24 h, read-out: MIC
[23] = Metabolic stability in human liver microsome assessed as half life measured at 60 mins by LC-MS/MS analysis; type: ADME; conditions: liver microsomes
[24] = tested on: Staphylococcus epidermidis; test: Potency index, ratio of telithromycin MIC to test compound MIC for antibacterial activity against erythromycin-resistant Staphylococcus epidermidis 19-8 assessed as inhibition of visible bacterial growth incubated for 18 hrs by broth microdilution method; type: functional
[25] = Cytotoxicity against mouse AML12 cells assessed as reduction in cell viability incubated for 48 hrs by MTT assay; type: toxicity, cell-based
[26] = tested on: Staphylococcus epidermidis; test: Antibacterial activity against erythromycin-resistant Staphylococcus epidermidis 19-8 assessed as inhibition of visible bacterial growth incubated for 18 hrs by broth microdilution method; type: functional
Streptococcus pneumoniae [27] = test: Potency index, ratio of telithromycin MIC to test compound MIC for antibacterial activity against Streptococcus pneumoniae SPN19-14 assessed as inhibition of visible bacterial growth incubated for 18 hrs by broth microdilution method; type: functional
Streptococcus agalactiae [28] = test: Antibacterial activity against erythromycin-resistant Streptococcus agalactiae 19-9 assessed as inhibition of visible bacterial growth incubated for 18 hrs by broth microdilution method; type: functional
Streptococcus pyogenes = test: Antibacterial activity against erythromycin-resistant Streptococcus pyogenes ATCC 19615 assessed as inhibition of visible bacterial growth incubated for 18 hrs by broth microdilution method; type: functional
[29] = tested on: Staphylococcus epidermidis; test: Antibacterial activity against erythromycin-resistant Staphylococcus epidermidis 19-4 assessed as inhibition of visible bacterial growth incubated for 18 hrs by broth microdilution method; type: functional
[30] = tested on: Staphylococcus epidermidis; test: Antibacterial activity against erythromycin-resistant Staphylococcus epidermidis 19-11 assessed as inhibition of visible bacterial growth incubated for 18 hrs by broth microdilution method; type: functional
Streptococcus agalactiae [31] = test: Antibacterial activity against erythromycin-resistant Streptococcus agalactiae 19-8 assessed as inhibition of visible bacterial growth incubated for 18 hrs by broth microdilution method; type: functional
Escherichia coli = test: Antibacterial activity against Escherichia coli ATCC 35218 assessed as inhibition of visible bacterial growth; type: functional, organism-based

Compound | MIC [1] [µg/mL] | MIC (Haemophilus influenzae [2]) [µg/mL] | MIC (Haemophilus influenzae [3]) [µg/mL] | MIC (Streptococcus pneumoniae [6]) [µg/mL] | MIC [7] [µg/mL] | MIC (Haemophilus influenzae [8]) [µg/mL] | remaining at 1 h [9] [%] | MIC (Moraxella catarrhalis [11]) [µg/mL] | MIC (Streptococcus pneumoniae [12]) [µg/mL] | MIC (Streptococcus pneumoniae [13]) [µg/mL] | MIC (Moraxella catarrhalis [14]) [µg/mL] | remaining at 1 h [15] [%] | MIC [17] [µg/mL] | MIC (Moraxella catarrhalis [22]) [µg/mL] | CC50 at 48 h [25] [µM] | MIC [26] [µg/mL] | MIC (Streptococcus agalactiae [28]) [µg/mL] | MIC (Streptococcus pyogenes) [µg/mL] | MIC [29] [µg/mL] | MIC [30] [µg/mL] | also measured
CC[C@H]1OC(=O)[C@@](C)(F)C(=O)[C@H](C)[C@@H](O[C@@H]2O[C@H](C)C[C@H](N(C)C)[C@H]2O)[C@](C)(OC)C[C@@H](C)C(=O)[C@H](C)[C@H]2N(CCCOC(=O)Nc3ccc4c(c3)CCO4)C(=O)O[C@]12C | < 0.03 | 8 (≈ 9.41 µM) | 8 (≈ 9.41 µM) | 0.06 (≈ 0.0706 µM) | 0.06 (≈ 0.0706 µM) | 2 (≈ 2.35 µM) | 0.3 | 0.06 (≈ 0.0706 µM) | 0.06 (≈ 0.0706 µM) | 0.6 (≈ 0.706 µM) | 0.06 (≈ 0.0706 µM) | 89.4 | 0.06 (≈ 0.0706 µM) | 0.125 (≈ 0.147 µM) | > 100 | 0.03 (≈ 0.0353 µM) | 2 (≈ 2.35 µM) | < 0.03 | 0.03 (≈ 0.0353 µM) | < 0.03 | Ratio (Streptococcus pneumoniae [4]): <4; Ratio [5]: 4; Ratio [10]: 4; Ratio (Streptococcus pneumoniae [16]): <4; Ratio [18]: 4; microsomal CLint [19]: 341 µL/min/mg; Ratio [20]: 4; Ratio [21]: 4; half-life [23]: 0.0333 h; Ratio [24]: 4; Ratio (Streptococcus pneumoniae [27]): <4
CC[C@H]1OC(=O)[C@@](C)(F)C(=O)[C@H](C)[C@@H](O[C@@H]2O[C@H](C)C[C@H](N(C)C)[C@H]2O)[C@](C)(OC)C[C@@H](C)C(=O)[C@H](C)[C@H]2N(CCCOC(=O)Nc3cccnc3)C(=O)O[C@]12C | 0.125 (≈ 0.155 µM) | 4 (≈ 4.94 µM) |  | 0.125 (≈ 0.155 µM) | 0.5 (≈ 0.618 µM) | 4 (≈ 4.94 µM) |  | 0.06 (≈ 0.0742 µM) | 0.125 (≈ 0.155 µM) | 0.125 (≈ 0.155 µM) | 0.06 (≈ 0.0742 µM) |  | 125 (≈ 155 µM) | 0.06 (≈ 0.0742 µM) | > 100 | 0.125 (≈ 0.155 µM) | 0.25 (≈ 0.309 µM) | < 0.03 | 0.25 (≈ 0.309 µM) | 0.125 (≈ 0.155 µM) | MIC (Streptococcus agalactiae [31]): < 0.03 µg/mL; Activity (Escherichia coli): Active
CC[C@H]1OC(=O)[C@@](C)(F)C(=O)[C@H](C)[C@@H](O[C@@H]2O[C@H](C)C[C@H](N(C)C)[C@H]2O)[C@](C)(OC)C[C@@H](C)C(=O)[C@H](C)[C@H]2N(CCCOC(=O)Nc3ccccc3C)C(=O)O[C@]12C | < 0.03 | 4 (≈ 4.87 µM) | 16 (≈ 19.5 µM) | 0.125 (≈ 0.152 µM) | 0.25 (≈ 0.304 µM) | 2 (≈ 2.43 µM) | 73.3 | 0.05 (≈ 0.0608 µM) | 0.125 (≈ 0.152 µM) | 0.125 (≈ 0.152 µM) | 0.125 (≈ 0.152 µM) | 101 | 0.125 (≈ 0.152 µM) | 0.125 (≈ 0.152 µM) | > 100 | 0.06 (≈ 0.073 µM) | 0.5 (≈ 0.608 µM) | < 0.03 | 0.06 (≈ 0.073 µM) | < 0.03 | microsomal CLint [19]: 4 µL/min/mg; half-life [23]: 2.93 h
